In one assay the target is T1, p38 kinase (Homo sapiens, UniProt Q16539).
T1 construct: GST (N); made in house; host or cells: E. coli
In words: p38 Kinase Assay. It is filed as biochemical. As for the experimental part:
The peptide substrate used in the p38 assay was biotin-IPTSPITTTYFFFRRR-amide. The p38 and MEK6 proteins were purified to homogeneity from E. coli expression systems. The fusion proteins were tagged at the N-terminus with Glutathione-S-Transferase (GST). The maximum activation was achieved by incubating 20 uL of a reaction mixture of 30 nM MEK6 protein and 120 nM p38 protein in the presence of 1.5 uM peptide and 10 mM Mg (CH3CO2)2 in 100 mM HEPES7 pH 7.5, added to 15 uL of a mixture of 1.5 uM ATP with 0.08 uCi [g-^33P]ATP, with or without 15 uL of inhibitor in 6% DMSO. The controls were reactions in the presence (negative controls) or absence (positive controls) of 50 mM EDTA. Reactions were allowed to proceed for 60 min at room temperature and quenched with addition of 50 uL of 250 mM EDTA and mixed with 150 uL of Streptavidin SPA beads (Amersham) to 0.5 mg/reaction. The Dynatech Microfluor white U-bottom plates were sealed and the beads were allowed to settle overnight. The plates were counted in a Packard TopCount for 60 seconds. IC50 values were obtained by fitting raw data to % I=100*(1−(I−C2)/(C1−C2)), where I was […], C1 was positive control, and C2 was negative control.

For assay [1], the target named is T2, JNK3 kinase (Jnk-3alpha-2) (Homo sapiens, UniProt P53779).
T2 construct: Jnk-3alpha-2 (as a truncated construct, residues 39 to 224) was expressed in E. coli as a GST fusion protein; Following purification the GST portion was removed by thrombin cleavage; fused on or other part: An N-terminal GST tag was used for expression and removed by thrombin cleavage before the assay
Put plainly: JNK3 Kinase Assay. It is filed as biochemical. As for the experimental part:
JNK3 Kinase Assay Jnk-3alpha-2 (as a truncated construct, residues 39 to 224) was expressed in E. coli as a GST fusion protein. Following purification the GST portion was removed by thrombin cleavage. The enzyme was stored at −80° C. Substrate c-Jun was expressed as a GST fusion protein including a signal peptide (biotinylation site) in E. coli. Following purification the substrate was biotinylated on a specific lysine in the signal peptide using biotin ligase. Prior to assay Jnk-3 was pre-activated by incubation with MgATP. The enzyme (10 nM) was screened in 40 mM HEPES (pH 7.4), 150 mM NaCl, 20 mM glycerophosphate, 1 mM DTT, 0.2 mM vanadate, 200 nM biotin-c-Jun, 5 mM MgCl2 and 10 uM ATP. Inhibitors were added over a conc range of from 0 to 10 uM in DMSO (fc 3%). The reaction was stopped by the addition of 25 mM EDTA. Phospho-c-Jun was detected using homogeneous time resolved fluorescence (HTRF) with a Eu-labelled antiphosphoserine (Serine 73) and streptavidin APC.

Where [2] appears, read: Table 9, p38 assays using Assay II, read-out: p38 IC50.
Setting [3] is: Table 8, compounds wherein Z is N, read-out: p38 kinase (inhibition of p38 kinase, IC50).
The mark [4] stands for this setting: Table 8, read-out: JNK3 kinase (inhibition of JNK3 kinase, IC50).

For orientation: IC50 means the concentration that inhibits the measured activity by half.

Read-outs that look alike come from different tables or passages of the source.

T1 sequence (Q16539 whole entry): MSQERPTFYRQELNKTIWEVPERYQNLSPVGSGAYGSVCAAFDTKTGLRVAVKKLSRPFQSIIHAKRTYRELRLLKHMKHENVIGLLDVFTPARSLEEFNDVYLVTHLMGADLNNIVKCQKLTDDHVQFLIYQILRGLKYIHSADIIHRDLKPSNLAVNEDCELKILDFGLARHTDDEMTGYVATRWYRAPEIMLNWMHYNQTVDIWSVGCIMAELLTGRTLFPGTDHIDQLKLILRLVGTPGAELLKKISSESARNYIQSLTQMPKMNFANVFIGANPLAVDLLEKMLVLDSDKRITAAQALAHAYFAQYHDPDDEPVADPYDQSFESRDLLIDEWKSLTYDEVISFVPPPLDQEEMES
T2 sequence (P53779 39-402 limits assumed): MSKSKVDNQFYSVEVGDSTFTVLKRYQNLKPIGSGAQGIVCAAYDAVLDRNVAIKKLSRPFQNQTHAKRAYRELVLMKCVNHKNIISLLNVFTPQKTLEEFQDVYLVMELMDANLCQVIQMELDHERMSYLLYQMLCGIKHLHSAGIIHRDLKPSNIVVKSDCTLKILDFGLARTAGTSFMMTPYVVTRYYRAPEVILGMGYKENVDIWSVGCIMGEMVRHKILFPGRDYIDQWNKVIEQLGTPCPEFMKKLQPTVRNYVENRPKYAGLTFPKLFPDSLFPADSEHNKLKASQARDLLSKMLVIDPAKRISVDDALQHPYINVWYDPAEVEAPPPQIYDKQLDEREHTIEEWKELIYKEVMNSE

As to `CCN(CC)CCCCNc1nccc(-c2c(-c3cccc(Cl)c3)nn3cc(C(F)(F)F)ccc23)n1` [Example 94, N-{4-[2-(3-chlorophenyl)-6-(trifluoromethyl)pyrazolo[1,5-a]pyridin-3-yl]pyrimidin-2-yl}-N-[4-(diethylamino)butyl]amine], the IC50 at p38 kinase (setting [2]) is 10 to 100 nM; in assay [1] (Table 9, read-out: JNK3 IC50), 100 to 1000 nM.
For `Fc1ccc(-c2nn3cc(C(F)(F)F)ccc3c2-c2ccnc(NCCCN3CCOCC3)n2)cc1Cl` [Example 122, N-{4-[2-(3-chloro-4-fluorophenyl)-6-(trifluoromethyl)pyrazolo[1,5-a]pyridin-3-yl]pyrimidin-2-yl}-N-(3-morpholin-4-ylpropyl)amine], in that order: 100 to 1000 nM and 100 to 1000 nM.
In the case of `FC(F)(F)c1ccc2c(-c3ccnc(NCCN4CCCCC4)n3)c(-c3cccc(Cl)c3)nn2c1` [Example 110, N-{4-[2-(3-chlorophenyl)-6-(trifluoromethyl)pyrazolo[1,5-a]pyridin-3-yl]pyrimidin-2-yl}-N-(2-piperidin-1-ylethyl)amine], the IC50 at p38 kinase (setting [2]) fell in the range of 100 to 1000 nM; in assay [1] (Table 9, read-out: JNK3 IC50) it was 1000 to 10000 nM.
For `Fc1ccc(-c2nn3cc(C(F)(F)F)ccc3c2-c2ccnc(NCCN3CCOCC3)n2)cc1Cl` [Example 120, N-{4-[2-(3-chloro-4-fluorophenyl)-6-(trifluoromethyl)pyrazolo[1,5-a]pyridin-3-yl]pyrimidin-2-yl}-N-(2-morpholin-4-ylethyl)amine], in that order: 10 to 100 nM and 100 to 1000 nM.
With `FC(F)(F)c1ccc2c(-c3ccnc(NCCN4CCCC4)n3)c(-c3cccc(Cl)c3)nn2c1` [Example 105, N-{4-[2-(3-chlorophenyl)-6-(trifluoromethyl)pyrazolo[1,5-a]pyridin-3-yl]pyrimidin-2-yl}-N-(2-pyrrolidin-1-ylethyl)amine], the IC50 at p38 kinase (setting [2]) was in the range of 100 to 1000 nM; in assay [1] (Table 9, read-out: JNK3 IC50), 1000 to 10000 nM.
For `FC(F)(F)c1ccc(-c2nn3cc(C(F)(F)F)ccc3c2-c2ccnc(NCCCN3CCCCC3)n2)cc1` [Example 112, N-(3-piperidin-1-ylpropyl)-N-(4-{6-(trifluoromethyl)-2-[4-(trifluoromethyl)phenyl]pyrazolo[1,5-a]pyridin-3-yl}pyrimidin-2-yl)amine], the half-inhibitory concentration (IC50) at p38 kinase (setting [2]) was 1000 to 10000 nM; in assay [1] (Table 9, read-out: JNK3 IC50) it was 1000 to 10000 nM.
Consider `FC(F)(F)c1ccc2c(-c3ccnc(NCCCCN4CCCC4)n3)c(-c3cccc(Cl)c3)nn2c1` [Example 106, N-{4-[2-(3-chlorophenyl)-6-(trifluoromethyl)pyrazolo[1,5-a]pyridin-3-yl]pyrimidin-2-yl}-N-(4-pyrrolidin-1-ylbutyl)amine], for which the IC50 at p38 kinase (setting [2]) was in the range of 10 to 100 nM; in assay [1] (Table 9, read-out: JNK3 IC50), 100 to 1000 nM.
For `CC(C)N(CCNc1nccc(-c2c(-c3ccc(F)c(Cl)c3)nn3cc(C(F)(F)F)ccc23)n1)C(C)C` [Example 100, N-{4-[2-(3-chloro-4-fluorophenyl)-6-(trifluoromethyl)pyrazolo-[1,5-a]pyridin-3-yl]pyrimidin-2-yl}-N-[2-(diisopropylamino)ethyl]amine], in that order: 100 to 1000 nM and 1000 to 10000 nM.
`FC(F)(F)c1ccc2c(-c3ccnc(NCCCN4CCOCC4)n3)c(-c3cccc(Cl)c3)nn2c1` [Example 123, N-{4-[2-(3-chlorophenyl)-6-(trifluoromethyl)pyrazolo[1,5-a]pyridin-3-yl]pyrimidin-2-yl}-N-(3-morpholin-4-ylpropyl)amine]: the IC50 is 10 to 100 nM on p38 kinase (setting [2]) and 100 to 1000 nM in assay [1] (Table 9, read-out: JNK3 IC50).
Take `CCCN(CCC)CCNc1nccc(-c2c(-c3ccc(F)c(Cl)c3)nn3cc(C(F)(F)F)ccc23)n1` [Example 98, N-{4-[2-(3-chloro-4-fluorophenyl)-6-(trifluoromethyl)pyrazolo-[1,5-a]pyridin-3-yl]pyrimidin-2-yl}-N-[2-(dipropylamino)ethyl]amine]: the IC50 on p38 kinase (setting [2]) lay in the range of 100 to 1000 nM; in assay [1] (Table 9, read-out: JNK3 IC50) it was 1000 to 10000 nM.
For `CN1CCN(CCCNc2nccc(-c3c(-c4ccc(F)cc4)nn4cc(C(F)(F)F)ccc34)n2)CC1` [Example 124, N-{4-[2-(4-fluorophenyl)-6-(trifluoromethyl)pyrazolo[1,5-a]pyridin-3-yl]pyrimidin-2-yl}-N-[3-(4-methylpiperazin-1-yl)propyl]amine], the IC50 on p38 kinase (setting [2]) is 10 to 100 nM; in assay [1] (Table 9, read-out: JNK3 IC50), 100 to 1000 nM.
For `FC(F)(F)c1ccc2c(-c3ccnc(NCCN4CCCCCC4)n3)c(-c3cccc(Cl)c3)nn2c1` [Example 117, N-(2-azepan-1-ylethyl)-N-{4-[2-(3-chlorophenyl)-6-(trifluoromethyl)pyrazolo[1,5-a]pyridin-3-yl]pyrimidin-2-yl}amine], in that order: 100 to 1000 nM and 1000 to 10000 nM.
On to `CN(C)CCCNc1nccc(-c2c(-c3ccc(F)cc3)nn3cc(C(F)(F)F)ccc23)n1` [Example 87, N-[3-(dimethylamino)propyl]-N-[4-{2-(4-fluorophenyl)-6-(trifluoromethyl)pyrazolo[1,5-a]pyridin-3-yl}pyrimidin-2-yl]amine], for which the IC50 on p38 kinase (setting [2]) lay in the range of 100 to 1000 nM; in assay [1] (Table 9, read-out: JNK3 IC50) it was 1000 to 10000 nM.
For `CCCN1CCN(CCNc2nccc(-c3c(-c4ccc(F)c(Cl)c4)nn4cc(C(F)(F)F)ccc34)n2)CC1` [Example 128, N-{4-[2-(3-chloro-4-fluorophenyl)-6-(trifluoromethyl)pyrazolo-[1,5-a]pyridin-3-yl]pyrimidin-2-yl}-N-[2-(4-propylpiperazin-1-yl)ethyl]amine] the same measures were 10 to 100 nM and 100 to 1000 nM.
For `Fc1ccc(-c2nn3cc(C(F)(F)F)ccc3c2-c2ccnc(NCCN3CCCCCC3)n2)cc1Cl` [Example 116, N-(2-azepan-1-ylethyl)-N-{4-[2-(3-chloro-4-fluorophenyl)-6-(trifluoromethyl)pyrazolo[1,5-a]pyridin-3-yl]pyrimidin-2-yl}amine] the same measures were 100 to 1000 nM and 1000 to 10000 nM.
Take `CN(C)CCCNc1nccc(-c2c(-c3cccc(Cl)c3)nn3cc(C(F)(F)F)ccc23)n1` [Example 90, N-{4-[2-(3-chlorophenyl)-6-(trifluoromethyl)pyrazolo[1,5-a]pyridin-3-yl]pyrimidin-2-yl}-N-[3-(dimethylamino)propyl]amine]: the concentration for half-maximal inhibition (IC50) on p38 kinase (setting [2]) lay within 10 to 100 nM; in assay [1] (Table 9, read-out: JNK3 IC50) it was 1000 to 10000 nM.
Regarding `CCCN1CCN(CCNc2nccc(-c3c(-c4ccc(C(F)(F)F)cc4)nn4cc(C(F)(F)F)ccc34)n2)CC1` [Example 127, N-[2-(4-propylpiperazin-1-yl)ethyl]-N-(4-{6-(trifluoromethyl)-2-[4-(trifluoromethyl)phenyl]pyrazolo[1,5-a]pyridin-3-yl}pyrimidin-2-yl)amine], the IC50 fell in the range of 1000 to 10000 nM on p38 kinase (setting [2]) and 1000 to 10000 nM in assay [1] (Table 9, read-out: JNK3 IC50).
Regarding `CN1CCN(CCCNc2nccc(-c3c(-c4ccc(F)c(Cl)c4)nn4cc(C(F)(F)F)ccc34)n2)CC1` [Example 125, N-{4-[2-(3-chloro-4-fluorophenyl)-6-(trifluoromethyl)pyrazolo-[1,5-a]pyridin-3-yl]pyrimidin-2-yl}-N-[3-(4-methylpiperazin-1-yl)propyl]amine], the IC50 at p38 kinase (setting [2]) was in the range of 10 to 100 nM; in assay [1] (Table 9, read-out: JNK3 IC50) it was 100 to 1000 nM.
For `Fc1ccc(-c2nn3ccccc3c2-c2ccnc(NC3CC3)n2)cc1` [Example 61, N-Cyclopropyl-4-[2-(4-fluorophenyl)pyrazolo[1,5-a]pyridin-3-yl]-2-pyrimidinamine], the IC50 (on p38 kinase (setting [3]); in assay [1] (setting [4])) was less than 500 nM each time.
On to `Cc1ccc(C)c(Oc2nccc(-c3c(-c4ccc(F)cc4)nn4cc(C(F)(F)F)ccc34)n2)c1` [Example 86, 3-[2-(2,5-Dimethylphenoxy)pyrimidin-4-yl]-2-(4-fluorophenyl)-6-(trifluoromethyl)pyrazolo[1,5-a]pyridine], for which the IC50 (on p38 kinase (setting [3]); in assay [1] (setting [4])) was less than 500 nM each time.

For the origin of these results see US7166597B2, “Fused pyrazole derivatives being protein kinase inhibitors” (Glaxo Group Limited, priority 2000, dated 2007).
